The assay concerns the target T1, Human Aryl Hydrocarbon Receptor (AhR) (Homo sapiens, UniProt P35869).
T1 construct: purchased INDIGO Bioscience IB06001-32; host or cells: AhR Reporter Cell (the kit's proprietary reporter cells)
T1 sequence (P35869 11-848): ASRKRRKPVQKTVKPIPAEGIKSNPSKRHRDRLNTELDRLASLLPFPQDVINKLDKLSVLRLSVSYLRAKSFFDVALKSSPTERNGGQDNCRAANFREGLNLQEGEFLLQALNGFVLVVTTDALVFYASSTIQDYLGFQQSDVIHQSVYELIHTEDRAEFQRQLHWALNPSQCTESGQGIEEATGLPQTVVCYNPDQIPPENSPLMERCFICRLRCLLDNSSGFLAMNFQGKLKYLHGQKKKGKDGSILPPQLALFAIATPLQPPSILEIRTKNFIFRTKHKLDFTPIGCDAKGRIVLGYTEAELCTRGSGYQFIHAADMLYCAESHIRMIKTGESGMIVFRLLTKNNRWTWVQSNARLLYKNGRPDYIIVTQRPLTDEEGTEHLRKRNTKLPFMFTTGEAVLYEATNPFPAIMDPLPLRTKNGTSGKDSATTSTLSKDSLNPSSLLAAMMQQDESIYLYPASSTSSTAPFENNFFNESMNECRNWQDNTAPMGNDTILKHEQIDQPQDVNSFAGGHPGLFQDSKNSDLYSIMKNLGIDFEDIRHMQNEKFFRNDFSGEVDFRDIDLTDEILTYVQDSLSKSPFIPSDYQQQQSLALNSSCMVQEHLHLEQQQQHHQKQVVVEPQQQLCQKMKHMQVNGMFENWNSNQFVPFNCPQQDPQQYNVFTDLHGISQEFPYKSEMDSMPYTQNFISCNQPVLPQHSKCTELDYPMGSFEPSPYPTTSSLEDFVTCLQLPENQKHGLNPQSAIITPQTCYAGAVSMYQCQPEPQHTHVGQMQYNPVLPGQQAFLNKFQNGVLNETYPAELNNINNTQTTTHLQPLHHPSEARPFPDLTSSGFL
Put plainly: AhR reporter assay (Human Aryl Hydrocarbon Receptor (AhR) Reporter Assay System, INDIGO Bioscience). The conditions noted are these: AHR inhibition at 10 nM test compound; AhR Reporter Cells activated with 200 μM kynurenic acid, 24 hours; firefly luciferase; normalized by positive and negative controls. The assay is classed as cell-based. The procedure:
The AhR reporter assay was performed following the protocol of the Human Aryl Hydrocarbon Receptor (AhR) Reporter Assay System (INDIGO Bioscience, #IB06001-32). AhR Reporter Cell was thawed and pre-incubated in Cell Recovery Medium (CRM) for 6 hours. The media was then removed and the cells were incubated with Compound Screening Medium (CSM) supplemented with 200 μM kynurenic acid for 24 hours in the absence (negative control) or presence of 10 nM test compounds. For positive inhibition control, cells activated with 200 μM kynurenic acid were incubated in the presence of literature AHR antagonists; alternatively un-activated cells were used as positive inhibition control. Following 24 hours incubation, the media was removed and Luciferase Detection Reagent (LDR) added. The firefly luciferase activity was quantified using a plate reader. Results were normalized by positive and negative controls.
The results of AHR inhibition at 10 nM for compounds as disclosed herein is reported in the below table.
On the technique in general: A reporter such as luciferase makes a cellular process visible.

The inhibition is the drop in the measured response relative to a control, in per cent. `C[C@@H](CO)n1cnc2c(-c3cnn(C)c3)nc(-c3ccc(-c4ccccc4F)nc3)cc2c1=O` [Compound 1]: the inhibition at 0.01 µM came out at 56%. Under `C[C@@H](CO)n1cnc2c(-c3cnn(C)c3)nc(/C=C/c3ccccc3)cc2c1=O` [Compound 2] stands 51%; under `C[C@@H](CO)n1cnc2c(-c3cnn(C)c3)nc(-c3ccc(N4CCOCC4)cc3)cc2c1=O` [Compound 3], 66%; under `C[C@@H](CO)n1cnc2c(-c3cnn(C)c3)nc(-c3ccc(N4CC5CCC(C4)O5)cc3)cc2c1=O` [Compound 4], 53%. Under `C[C@@H](CO)n1cnc2c(-c3cnn(C)c3)nc(-c3ccc(C4CCOCC4)cc3)cc2c1=O` [Compound 5] stands 40%; under `C[C@@H](CO)n1cnc2c(-c3cnn(C)c3)nc(-c3ccc(-c4ccc(F)cc4)nc3)cc2c1=O` [Compound 6], 96%. Under `C[C@@H](CO)n1cnc2c(-c3cnn(C)c3)nc(-c3ccc(-c4ccc(Cl)cc4)nc3)cc2c1=O` [Compound 7] stands 90%. In the case of `C[C@@H](CO)n1cnc2c(-c3cnn(C)c3)nc(-c3ccc(-c4ccc(F)nc4)nc3)cc2c1=O` [Compound 8], the inhibition at 0.01 µM is 83%.

As for `C[C@@H](CO)n1cnc2c(-c3cnn(C)c3)nc(-c3ccc(C4=CCOCC4)nc3)cc2c1=O` [Compound 9], the inhibition at 0.01 µM stood at 29%.

Turning to `Cc1nn(C)c2cc(-c3cc4c(=O)n([C@@H](C)CO)cnc4c(-c4cnn(C)c4)n3)ccc12` [Compound 10], the inhibition at 0.01 µM is 28%. Under `C[C@@H](CO)n1cnc2c(-c3cnn(C)c3)nc(-c3ccc(C4CCOCC4)nc3)cc2c1=O` [Compound 11] stands 3%. Under `C[C@@H](CO)n1cnc2c(-c3cnn(C)c3)nc(-c3ccc(-c4cccc(F)c4)nc3)cc2c1=O` [Compound 12] stands 72%.

`C[C@@H](CO)n1cnc2c(-c3cnn(C)c3)nc(-c3ccc(N4CCCCC4)cc3)cc2c1=O` [Compound 13]: the inhibition at 0.01 µM is 64%. Under `C[C@@H](CO)n1cnc2c(-c3cnn(C)c3)nc(N3CCN(c4ccc(F)cc4)CC3)cc2c1=O` [Compound 14] stands 85%; under `C[C@@H](CO)n1cnc2c(-c3cnn(C)c3)nc(N3Cc4ccccc4C3)cc2c1=O` [Compound 15], 99%; under `C[C@@H](CO)n1cnc2c(-c3cnn(C)c3)nc(N3CC=C(c4ccc(F)cc4)CC3)cc2c1=O` [Compound 16], 82%. In the case of `C[C@@H](CO)n1cnc2c(-c3cnn(C)c3)nc(N3CC4CCC(C3)N4c3ccc(F)cc3)cc2c1=O` [Compound 17] it was 35%; in that of `C[C@@H](CO)n1cnc2c(-c3cnn(C)c3)nc(/C=C/c3ccc(F)cc3)cc2c1=O` [Compound 20], 70%. Turning to `C[C@@H](CO)n1cnc2c(-c3cnn(C)c3)nc(-c3ccc(C(=O)N4CCOCC4)cc3)cc2c1=O` [Compound 21], the inhibition at 0.01 µM is -0.3%. Turning to `C[C@@H](CO)n1cnc2c(-c3cnn(C)c3)nc(-c3ccc(N4CCOCC4)nc3)cc2c1=O` [Compound 25], the inhibition at 0.01 µM amounted to 8%. In the case of `C[C@@H](CO)n1cnc2c(-c3cnn(C)c3)nc(-c3cnc(N4CCOCC4)nc3)cc2c1=O` [Compound 26] it was 24%; in that of `CC1COCCN1c1ccc(-c2cc3c(=O)n([C@@H](C)CO)cnc3c(-c3cnn(C)c3)n2)cn1` (stereo partly drawn) [Compound 27], 45%; in that of `C[C@@H](CO)n1cnc2c(-c3cnn(C)c3)nc(-c3ccc(C(=O)N4CCCNCC4)cc3)cc2c1=O` [Compound 28], -5%. Under `C[C@@H](CO)n1cnc2c(-c3cnn(C)c3)nc(-c3ccc(C(=O)N4CCC(O)C4)cc3)cc2c1=O` (stereo partly drawn) [Compound 29] stands 8%; under `C[C@@H](CO)n1cnc2c(-c3cnn(C)c3)nc(-c3ccc(C(=O)N4CCC(N)CC4)cc3)cc2c1=O` [Compound 30], -5%; under `C[C@@H](CO)n1cnc2c(-c3cnn(C)c3)nc(-c3ccc(N4CCN(S(C)(=O)=O)CC4)cc3)cc2c1=O` [Compound 31], 24%.

As for `C[C@@H](CO)n1cnc2c(-c3cnn(C)c3)nc(-c3ccc(C(=O)N4CCNCC4)cc3)cc2c1=O` [Compound 32], the inhibition at 0.01 µM was -16%. Under `C[C@@H](CO)n1cnc2c(-c3cnn(C)c3)nc(-c3ccc(C(=O)N4CCC(N)C4)cc3)cc2c1=O` (stereo partly drawn) [Compound 34] stands 6%. In the case of `C[C@@H](CO)n1cnc2c(-c3cnn(C)c3)nc(-c3ccc(C(=O)N4CCC(O)CC4)cc3)cc2c1=O` [Compound 35] it was 5%; in that of `C[C@@H](CO)n1cnc2c(-c3cnn(C)c3)nc(-c3ccc(NC(=O)CN4CCOCC4)nc3)cc2c1=O` [Compound 39], -4%; in that of `C[C@@H](CO)n1cnc2c(-c3cnn(C)c3)nc(-c3ccc(-c4cncc(F)c4)nc3)cc2c1=O` [Compound 41], 39%. Under `C[C@@H](CO)n1cnc2c(-c3cnn(C)c3)nc(-c3ccc(NC(=O)CN4CCOCC4)cc3)cc2c1=O` [Compound 42] stands 16%; under `C[C@@H](CO)n1cnc2c(-c3cnn(C)c3)nc(-c3ccc(-c4ccc(=O)n(C)c4)cc3)cc2c1=O` [Compound 44], 44%; under `C[C@@H](CO)n1cnc2c(-c3cnn(C)c3)nc(N3Cc4cccc(F)c4C3)cc2c1=O` [Compound 52], 35%. Turning to `Cc1cc(N2CCOCC2)ccc1-c1cc2c(=O)n([C@@H](C)CO)cnc2c(-c2cnn(C)c2)n1` [Compound 54], the inhibition at 0.01 µM came out at 1%. Under `C[C@@H](CO)n1cnc2c(-c3cnn(C)c3)nc(N3Cc4ccc(F)cc4C3)cc2c1=O` [Compound 56] stands 99%; under `Cc1cc(-c2cc3c(=O)n([C@@H](C)CO)cnc3c(-c3cnn(C)c3)n2)ccc1N1CCOCC1` [Compound 57], 29%; under `C[C@@H](CO)NC(=O)c1cc(-c2ccc(-c3ccccc3F)nc2)nc(-c2cnn(C)c2)n1` [Compound 59], 24%. Under `C[C@@H](CO)NC(=O)c1cc(N2CCN(c3ccc(F)cc3)CC2)nc(-c2cnn(C)c2)n1` [Compound 60] stands 21%. For the compound `C[C@@H](CO)NC(=O)c1cc(-c2ccc(-c3ccc(F)cc3)nc2)nc(-c2cnn(C)c2)n1` [Compound 61], the inhibition at 0.01 µM was determined as 62%. In the case of `C[C@@H](CO)NC(=O)c1cc(-c2ccc(N3CCOCC3)cc2)nc(-c2cnn(C)c2)n1` [Compound 62], the inhibition at 0.01 µM stood at 29%. Consider `C[C@@H](CO)NC(=O)c1cc(N2Cc3ccccc3C2)nc(-c2cnn(C)c2)n1` [Compound 63], for which the inhibition at 0.01 µM turned out to be 58%. On to `C[C@@H](CO)NC(=O)c1cc(N2Cc3ccccc3C2=O)nc(-c2cnn(C)c2)n1` [Compound 64], for which the inhibition at 0.01 µM was 49%. Consider `C[C@@H](CO)NC(=O)c1cc(N2CCN(c3ccc(F)cc3)CC2)nc(-c2cnn(C(F)(F)F)c2)n1` [Compound 65], for which the inhibition at 0.01 µM was 7%.

Take `C[C@@H](CO)NC(=O)c1cc(N2CCN(c3ccc(F)cc3)CC2)nc(-c2cccc(F)c2)n1` [Compound 66]: the inhibition at 0.01 µM is 69%. In the case of `Cc1nn(C)c2cc(-c3cc(C(=O)N[C@@H](C)CO)nc(-c4cnn(C)c4)n3)ccc12` [Compound 67] it was 33%; in that of `C[C@@H](CO)NC(=O)c1cc(-c2ccc(-c3cccc(F)c3)nc2)nc(-c2cnn(C)c2)n1` [Compound 68], 62%; in that of `C[C@@H](CO)NC(=O)c1cc(-c2ccc(-c3ccc(F)nc3)nc2)nc(-c2cnn(C)c2)n1` [Compound 69], 60%.

For the compound `C[C@@H](CO)NC(=O)c1cc(-c2ccc(-c3ccc(Cl)cc3)nc2)nc(-c2cnn(C)c2)n1` [Compound 70], the inhibition at 0.01 µM is 87%. In the case of `C[C@@H](CO)NC(=O)c1cc(-c2ccc(C3CCOCC3)cc2)nc(-c2cnn(C)c2)n1` [Compound 71] it was 37%. For the compound `C[C@@H](CO)NC(=O)c1cc(N2CCN(c3ccc(F)cc3)[C@@H](C)C2)nc(-c2cnn(C)c2)n1` [Compound 72], the inhibition at 0.01 µM was 13%.

For the origin of these results see patent publication US20260272944A1, “PYRIDO[3,4-D]PYRIMIDINONE AND PYRIMDLLNE ARYL HYDROCARBON RECEPTOR ANTAGONISTS AND USES THEREOF” (ALLIANTHERA (SUZHOU) BIOPHARMACEUTICAL CO., LTD., priority 2023, published 2026).
